Each block holds one compound with its values, some of them ahead of it.
What was measured:
IL-8 expression = IL-8 expression in LPS-stimulated HUVECtert cells; type: cell-based; details: for inhibition at 30 µM / IL-8 % Inhibition (30 µM) / IC50: HUVECtert cells stimulated with LPS; for inhibition at 30 µM / IL-8 % Inhibition (30 µM): means ± SD of 5 replicates, b: one sample pooled from the 5 replicates; for effect on IL-8 expression: pure compound, screening 30 µM
Procedure: (§1) To evaluate the pharmacological activity of the extracts, all extracts were assayed in three different cellular in vitro models that are relevant in the context of inflammation. […] In these cells, the potential impact of the extracts on cell viability was assessed (Figure 2C).
(§2) Assays were performed as previously described. Extracts were dissolved in dimethyl sulfoxide (DMSO) and further diluted in cell culture medium to obtain a final concentration of 50 µg/mL; DMSO at the respective final concentration (<0.1%) was used as vehicle control in each assay. OPLS-DA candidate compounds were also dissolved in DMSO to obtain a final screening concentration of 30 µM.
[…] Impact of test samples on cell viability was determined after 6 h of stimulation by XTT. […] After incubation for 2 h, absorbance was measured at 450 nm. Samples decreasing cell viability by more than 30% were considered to negatively influence cell viability.
(§3) To determine the IC50 values, pure compounds showing significant inhibitory activity at the screening concentration were tested at 5–10 concentrations, each with 4 replicates.

NF-κB = experiment: NF-κB-driven luciferase reporter gene transactivation in TNF-α-stimulated HEK293/NF-κB-luc cells; type: cell-based; details: for inhibition at 30 µM / IC50: Homo sapiens, HEK293; for inhibition at 30 µM / IC50 / NFκB % Inhibition (30 µM): HEK/NFκB-luc cells stimulated with TNF-α; for inhibition at 30 µM / NFκB % Inhibition (30 µM): means ± SD of 4 replicates; for effect on NF-κB activation: pure compound, screening 30 µM
Procedure: as §1, §2
Transactivation activity of a NF-κB-driven luciferase reporter gene was determined in TNF-α (2 ng/mL)-stimulated HEK293/NF-κB-luc cells (Panomics, RC0014), using 5 µM parthenolide (Sigma-Aldrich, St. Louis, MO, USA) as positive control. Differences in cell viability were detected by comparing the fluorescence of vehicle-treated cells and cells treated with sample solutions upon staining with CellTracker Green CMFDA (C2925; Invitrogen), a fluorescent probe that is retained inside living cells. Screening samples were tested in three independent experiments, each performed in quadruplicate.
as §3

NO production = experiment: NO release from LPS/IFN-γ-stimulated RAW 264.7 macrophages (Griess); type: cell-based, mouse; details: for inhibition at 30 µM / NO % Inhibition (30 µM): means ± SD of 3 experiments in duplicates; for effect on NO production: pure compound, screening 30 µM
Procedure: as §1, §2
After removing 50 µL of the supernatants to react with Griess reagent (Sigma Aldrich), cells were incubated with XTT reagent (XTT proliferation kit II, Sigma Aldrich). NO production (Griess reaction) and metabolic activity of the cells (XTT formazan product) were photometrically measured. Tests were performed in three independent experiments, each in duplicate.
as §3

HUVECtert cells = experiment: Cell viability of HUVECtert cells (XTT); type: cell-based; set-up: key: ^+ compound significantly impaired cell viability at concentration of 30 µM; details: 30 µM, decrease of viability by more than 30%
Procedure: Effects on IL-8 expression were tested in hTERT-immortalized HUVECtert cells stimulated with lipopolysaccharide (LPS, 100 ng/mL, Sigma-Aldrich), with BAY 11-7082 (5 µM) as positive control. Activity screening was performed in sextuplicate. Impact of test samples on cell viability was determined after 6 h of stimulation by XTT. Incubation medium was removed, and 40 µL serum-free medium, containing XTT (Thermo Fisher Scientific, final concentration 200 µg/mL) and phenazine methyl sulfate (TCI Europe N.V., final concentration: 25 µM) were added to each well. After incubation for 2 h, absorbance was measured at 450 nm. Samples decreasing cell viability by more than 30% were considered to negatively influence cell viability.

[1] = Mus musculus, Macrophage, LPS/IFNγ-stimulated RAW macrophages
[2] = LPS/IFNγ-stimulated RAW macrophages

SMILES: O=c1cc(-c2ccc(O)c(O)c2)oc2cc(O[C@@H]3O[C@H](CO)[C@@H](O)[C@H](O)[C@H]3O)cc(O)c12 [Compound 7, luteolin-7-O-glucoside, reference compound]
- IL-8 % Inhibition (30 µM) (IL-8 expression; 30 µM): 7.42 ± 2.04%
- effect on IL-8 expression (IL-8 expression): no activity
- NFκB % Inhibition (30 µM) (NF-κB; 30 µM): 0.68 ± 4.29%
- effect on NF-κB activation (NF-κB): no activity
- NO % Inhibition (30 µM) (NO production; [2]): 4.68 ± 9.82%
- effect on NO production (NO production): no activity

SMILES: O=c1cc(-c2ccc(O)cc2)oc2c(-c3c(O)cc(O)c4c(=O)cc(-c5ccc(O)cc5)oc34)c(O)cc(O)c12 [Compound 26, 5,7,5′,7,-Tetrahydroxy-2,2′-bis-(4-hydroxy-phenyl)-[8,8′]bichromenyl-4,4′-dione]
- inhibition at 30 µM (IL-8 expression; 30 µM): -2.05 ± 3.02%
- inhibition at 30 µM (NF-κB; 30 µM): 3.42 ± 3.15%
- inhibition at 30 µM (NO production; [1]): 9.61 ± 11.4%

SMILES: COc1cc(-c2cc(=O)c3c(O)cc(O)c(-c4c(O)cc(O)c5c(=O)cc(-c6ccc(O)c(OC)c6)oc45)c3o2)ccc1O [Compound 29, 5,7,5′,7,-Tetrahydroxy-2,2′-bis-(4-hydroxy-3-methoxy-phenyl)-[8,8′]bichromenyl-4,4′-dione]
- inhibition at 30 µM (IL-8 expression; 30 µM): 2.97 ± 9.92%
- inhibition at 30 µM (NF-κB; 30 µM): 31.2 ± 15.5%
- NF-κB Activity (NF-κB; class from Table 5 data, 30 µM): (a)
- inhibition at 30 µM (NO production; [1]): -0.85 ± 3.84%

SMILES: C=C[C@H]1[C@H](O[C@@H]2O[C@H](CO)[C@@H](O)[C@H](O)[C@H]2O)OC=C(C(=O)OC)[C@H]1CC(=O)O [Compound 4, Secoxyloganin, reference compound]
- IL-8 % Inhibition (30 µM) (IL-8 expression; 30 µM): −0.96 ± 6.01%
- NFκB % Inhibition (30 µM) (NF-κB; 30 µM): −17.25 ± 9.25%
- NO % Inhibition (30 µM) (NO production; [2]): 5.85 ± 4.58%

SMILES: O=c1cc(-c2ccc(O)cc2)oc2cc(O)cc(O)c12 [Compound 21, apigenin]
- inhibition at 30 µM (IL-8 expression; 30 µM): 64.8 ± 3.03%
- IC50 (IL-8 expression): 18.9 µM
- inhibition at 30 µM (NO production; [1]): 24.3 ± 10.8%

SMILES: COc1cc(-c2cc(=O)c3c(OC)cc(O)cc3o2)cc(OC)c1OC [Compound 22, 7-hydroxy-5-methoxy-2-(3,4,5-trimethoxyphenyl)-chromen-4-one]
- inhibition at 30 µM (IL-8 expression; 30 µM): 13.2 ± 2.49%
- inhibition at 30 µM (NF-κB; 30 µM): 51.1 ± 2.86%
- effect on NF-κB activation (NF-κB; listed as 7-hydroxy-5,3′,4′,5′-tetramethoxyflavone): weak inhibition
- inhibition at 30 µM (NO production; [1]): 8.22 ± 11.9%

SMILES: O=c1cc(-c2ccc(O)c(O)c2)oc2cc(O)cc(O)c12 [Compound 18, luteolin, reference compound]
- inhibition at 30 µM (IL-8 expression; 30 µM): 74.8 ± 2.15%
- inhibition at 30 µM (NF-κB; 30 µM): 95.83 ± 0.01%
- IC50 (NF-κB): 6.84 µM
- inhibition at 30 µM (NO production; [1]): 56.4 ± 12.7%
- IC50 (NO production; [1]): 31.8 µM

The next lines start with results.

- IC50 (NF-κB): 19.6 µM
SMILES: COc1cc(-c2cc(=O)c3c(O)cc(O)c(-c4c(O)cc(O)c5c(=O)cc(-c6ccc(O)cc6)oc45)c3o2)ccc1O [Compound 27, 5,7,5′,7,-Tetrahydroxy-2-(4-hydroxy3-methoxy-phenyl)-2′-(4-hydroxy-phenyl)-[8,8′]bichromenyl-4,4′-dione]
- inhibition at 30 µM (IL-8 expression; 30 µM): 3.5 ± 4.58%
- inhibition at 30 µM (NF-κB; 30 µM): 78.1 ± 8.86%
- effect on NF-κB activation (NF-κB): moderately inhibited
- inhibition at 30 µM (NO production; [1]): 1.45 ± 7.78%

- IC50 (NF-κB): 3.04 µM
SMILES: C=Cc1c(C)c2cc3nc(c4c5[nH]c(cc6nc(cc1[nH]2)C(C)=C6CC)c(C)c5C(=O)[C@@H]4C(=O)OC)[C@@H](CCC(=O)O)[C@@H]3C [Compound 52, pheophorbide A, reference compound]
- inhibition at 30 µM (IL-8 expression; 30 µM): 95.8%
- IL-8 Activity (IL-8 expression; class from Table 5 data, 30 µM): a/ct
- effect on IL-8 expression (IL-8 expression): inhibited IL-8 production
- inhibition at 30 µM (NF-κB; 30 µM): 74.7 ± 13.6%
- effect on NF-κB activation (NF-κB): pronounced inhibition
- inhibition at 30 µM (NO production; [1]): 5.48 ± 7.55%
- effect on NO production (NO production): did not inhibit
- impaired cell viability (flag, IL-8 assay) (HUVECtert cells): +

- IC50 (NF-κB): 6.45 µM
SMILES: O=c1cc(-c2ccc(O)c(-c3c(O)cc(O)c4c(=O)cc(-c5ccc(O)cc5)oc34)c2)oc2cc(O)cc(O)c12 [Compound 32, amentoflavone, reference compound]
- inhibition at 30 µM (IL-8 expression; 30 µM): 9.35 ± 2.78%
- inhibition at 30 µM (NF-κB; 30 µM): 90.8 ± 3.43%
- effect on NF-κB activation (NF-κB): potently inhibited
- inhibition at 30 µM (NO production; [1]): 7.06 ± 10.6%

- IC50 (IL-8 expression): 47.9 µM
- IC50 (NF-κB): 3.44 µM
SMILES: COc1ccc(-c2cc(=O)c3c(O)cc(O)c(-c4cc(-c5cc(=O)c6c(O)cc(O)cc6o5)ccc4O)c3o2)cc1 [Compound 33, podocarpusflavone A, reference compound]
- inhibition at 30 µM (IL-8 expression; 30 µM): 40.2 ± 29.8%
- effect on IL-8 expression (IL-8 expression): moderately inhibited
- inhibition at 30 µM (NF-κB; 30 µM): 99.2 ± 1.25%
- effect on NF-κB activation (NF-κB): potently inhibited
- inhibition at 30 µM (NO production; [1]): 3.42 ± 3.94%

Source: PMC9027581, “Characterization of Constituents with Potential Anti-Inflammatory Activity in Chinese Lonicera Species by UHPLC-HRMS Based Metabolite Profiling” (Metabolites, 2022)
